pIC50: −log10 of the molar value.

One molecule from PMC8880313, “Discovery of Novel Andrographolide Derivatives as Antiviral Inhibitors against Human Enterovirus A71” (Pharmaceuticals, 2022) can be followed below.

The subject of assay [1] is EV-A71. Nature of the assay: Post-treatment assay with viral plaque assay. In kind it is cell-based, human enterovirus A71 (EV-A71) strain 41. Particulars: for reduction in viral titre: post-treatment, 12 hpi. How it is done:
Firstly, we performed cell viability assay to evaluate the cytotoxicity profile of the 19 hits. Cells seeded overnight were treated with the hit compounds at 10 µM. […] Anti-EV-A71 activity of AGP-253 had been illustrated and discussed previously. We were particularly interested in ZAF-46 and ZAF-47 as they belonged to the same series bearing novel 14-quinolinoxy and 17-hydro-8,9-olefin modifications (Figure 2b) that could potentially open up new targets for EV-A71 therapeutics. Additional cell viability assays were performed for ZAF-46 and ZAF-47 at different concentrations to identify the low cytotoxic concentrations for downstream post-treatment assays. For post-treatment assays, cells seeded overnight were infected with EV-A71 and subsequently treated with ZAF-46 and ZAF-47 at different concentrations. […] Treatment with ZAF-46 led to 1.4 log reduction at 10 µM and 2.4 log reduction at 20 µM (Figure 2c) while treatment with ZAF-47 led to 0.8 log reduction at 5 µM, 1.1 log reduction at 10 µM and 2.1 log reduction at 20 µM (Figure 2d). CC50 and IC50 for both compounds were determined and used to derive their SI (Table 2). ZAF-47 was selected for further downstream analysis due to its higher SI value which indicate higher pharmacological value for clinical use.
(§1) To determine the inhibitory profiles of the hits, post treatment assay was performed. Seeded 24-well plates, with 1.5 × 10^5 RD cells per well, were incubated overnight at 37 °C with 5% CO2. The seeded cells were infected with EV-A71 (100 µL per well, MOI = 1) for 1 h at 37 °C with 5% CO2 and then rinsed with 1 mL of PBS twice. Different concentrations of the hits were used to treat the infected cells for 12 h at 37 °C with 5% CO2. At 12 hpi, the plates were frozen and thawed for 2 cycles (−80°C; 37 °C) before collection of supernatants to measure the viral titres via viral plaque assay.
(§2) Measurement of the viral titres from collected supernatants was derived from viral plaque assays. To do this, 24-well plates, seeded with 2.4 × 10^5 RD cells per well, were used in plaque assays for EV-A71, EV-D68, Echo7, CV-A6, CV-A16 and CV-A24 while 24-well plates, seeded with 1.2 × 10^5 Vero cells per well, were used in plaque assays for CV-B5. Seeded cells were incubated overnight at 37 °C with 5% CO2. Viral supernatants were diluted from 10^−1 to 10^−7 in reduced serum DMEM before infecting the cells with a volume of 100 µL for 1 h at 37 °C with 5% CO2 (33 °C instead for EV-D68). Cells were rinsed twice with PBS before overlaying with 1 mL of reduced serum DMEM containing 0.5% agarose (Vivantis, Shah Alam, Malaysia). Cells infected with Echo7 supernatants were incubated for 2 days, cells infected with CV-A24 and CV-B5 supernatants were incubated for 3 days and cells infected with EV-A71, CV-A6, CV-A16 and EV-D68 supernatants were incubated for 4 days for the formation of plaques. Subsequently, the cells were fixed and stained overnight with 4% paraformaldehyde and 1% crystal violet (Sigma-Aldrich). Subsequent formation of viral plaques was counted manually to quantify the viral titre in PFU/mL

Assay [2] deals with CV-A16. Nature of the assay: Post-treatment assay, antiviral spectrum. Format: cell-based, Coxsackievirus A16. The procedure:
(§3) We were also interested in the antiviral potential of ZAF-47 against other Enteroviruses. As such, we performed post-treatment assay on RD cells infected with other Enteroviruses such as CV-A16, CV-A6, Echo7, CV-B5, CV-A24 and EV-D68.
To determine the inhibitory profiles of the hits, post treatment assay was performed. Seeded 24-well plates, with 1.5 × 10^5 RD cells per well, were incubated overnight at 37 °C with 5% CO2. The seeded cells were infected with EV-A71 (100 µL per well, MOI = 1) for 1 h at 37 °C with 5% CO2 and then rinsed with 1 mL of PBS twice. […]
as §2, with “Cells infected with Echo7 supernatants were incubated for 2 days, cells infected with CV-A24 and CV-B5 supernatants were incubated for 3 days and cells infected with EV-A71, CV-A6, CV-A16 and EV-D68 supernatants were incubated for 4 days for the formation of plaques. Subsequently, the cells were fixed and stained overnight with 4% paraformaldehyde and 1% crystal violet (Sigma-Aldrich).” left out, “PFU/mL […]” for “PFU/mL”

Assay [3] has as its system CV-A24. In words: Post-treatment assay, antiviral spectrum. In kind it is cell-based, Coxsackievirus A24. How it is done: as §3, §1
Measurement of the viral titres from collected supernatants was derived from viral plaque assays. To do this, 24-well plates, seeded with 2.4 × 10^5 RD cells per well, were used in plaque assays for EV-A71, EV-D68, Echo7, CV-A6, CV-A16 and CV-A24 while 24-well plates, seeded with 1.2 × 10^5 Vero cells per well, were used in plaque assays for CV-B5. Seeded cells were incubated overnight at 37 °C with 5% CO2. […] Subsequent formation of viral plaques was counted manually to quantify the viral titre in PFU/mL […]

Assay [4] has as its system EV-A71 virions. Nature of the assay: Co-treatment assay. Particulars: 20 µM with virions for 30 min, 12 hpi. Format: cell-based, human enterovirus A71 (EV-A71) strain 41. The procedure:
To confirm this finding, assays to investigate the effect of ZAF-47 on EV-A71 entry into cells were performed. With pre-treatment assay, we first treated the cells with different concentrations of ZAF-47 before subjecting them to EV-A71 infection. The aim was to investigate if ZAF-47 was able to bind to host surface receptors which would prevent the virions from binding and thus blocking viral entry. […] Even at the highest concentration, the reduction in viral titre (0.8 log10 PFU/mL decrease) was not as pronounced as post-treatment and could likely be due to drug toxicity. Thus, it is unlikely that ZAF-47 inhibits EV-A71 infection by binding with host receptors to block viral entry. With co-treatment assay, we first treated EV-A71 virions with ZAF-47 for 30 min before infecting the cells. The aim was to investigate if ZAF-47 was able to bind to viral surface proteins which would prevent the virions from binding to the host receptors and thus blocking viral entry. […] Thus, it is unlikely that ZAF-47 blocks EV-A71 entry into host cells by binding to viral surface proteins. Instead, using entry bypass assay, we were able to deduce that ZAF-47 most likely targets EV-A71 post-entry stages. […]
Seeded 24-well plates, with 1.5 × 10^5 RD cells per well, were incubated overnight at 37 °C with 5% CO2. […] The plates were frozen down at 12 hpi for viral titre quantification using viral plaque assay.

Consider `CC(=O)OC[C@]1(C)C(=O)CC[C@@]2(C)C(C/C=C3/C(=O)OC[C@@H]3Oc3cccc4cccnc34)=C(C)CC[C@@H]21` [ZAF-47, (14β)-(8′-Quinolinoxy)-3-ketone-9-dehydro-17-hydro-19-acetoxy–andrographolide], for which the results for the “reduction in viral titre” value in assay [1] (5 µM), in assay [1] (10 µM) and in assay [1] (20 µM) were 0.8 log, 1.1 log and 2.1 log, respectively. The pIC50 (as a rule, −log10 of the IC50, conventionally taken in molar units) in assay [1] (Enterovirus A, EVA71, EV-A71-infected RD cells, MOI = 1, 12 h treatment, viral plaque assay) is 5.69; in assay [2] (CVA16, CV-A16, Enterovirus A, drug treatment duration 16 h, RD cells), 5.86; in assay [3] (CVA24, CV-A24, Enterovirus C, drug treatment duration 12 h, RD cells), 5.96. The “Selectivity Index (SI)” value in assay [1] (SI = CC50/IC50) was 14.35. In addition, the viral titre result was “reducing the viral titres of the above-listed enteroviruses significantly” in assay [2] (10 µM, CV-A16-infected RD cells) and “reducing the viral titres of the above-listed enteroviruses significantly” in assay [3] (10 µM, CV-A24-infected RD cells). Moreover, in assay [4], the “viral titre versus DMSO treatment” value was “no significant difference”.
